≈ marks a conversion by molar mass, not a printed value.
Legend:
Experiment in all cases: in vitro antibacterial evaluation, MIC by broth dilution
Type in all cases: cell-based
Enterococcus sp. = conditions: broth dilution, 18 hours at 35° C.; for MIC Enterococcus faecalis (ATCC 29212): strain ATCC 29212; for MIC Enterococcus faecalis (GC 2242): strain GC 2242; for MIC Enterococcus faecium (GC 2243): strain GC 2243; for MIC Enterococcus faecalis (GC 2691): strain GC 2691; for MIC Enterococcus faecalis (GC 3059): strain GC 3059; for MIC Enterococcus faecalis (GC 4552): strain GC 4552; for MIC Enterococcus faecalis (GC 4553): strain GC 4553; for MIC Enterococcus faecalis (GC 4554): strain GC 4554; for MIC Enterococcus faecium (GC 4556): strain GC 4556; for MIC Enterococcus faecium (GC 4557): strain GC 4557; for MIC Enterococcus avium (GC 4558): strain GC 4558; for MIC Enterococcus faecalis (GC 6189): strain GC 6189
Method in brief: (§1)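 MIC, the lowest antibiotic concentration preventing growth, was read across 64-0.06 μg/mL with 5×10^5 CFU/mL inoculum. Method followed NCCLS M7-A2 broth dilution using Mueller-Hinton II; Gram-positive strains covered recent methicillin-, penicillin- and/or vancomycin-resistant clinical isolates.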

Escherichia coli = tested on: Escherichia coli
Method in brief: as §1

Staphylococcus sp. = conditions: broth dilution, 18 hours at 35° C.; for MIC Staphylococcus aureus (GC 1131): strain GC 1131
Method in brief: as §1

Streptococcus sp. = conditions: broth dilution, 18 hours at 35° C.; for MIC Streptococcus pneumoniae (ATCC 6301): strain ATCC 6301; for MIC Streptococcus pneumoniae (GC 1894): strain GC 1894; for MIC Streptococcus pyogenes (GC 4563): strain GC 4563; for MIC Streptococcus agalactiae (GC 4564): strain GC 4564; for MIC Streptococcus pneumoniae (GC 4565): strain GC 4565
Method in brief: as §1

## CC(C)=CCCC(C)=CCOc1ccc(C2OCC3OC(OC4C(CO)OC(Oc5ccc(CC6NC(=O)C(C(C)c7ccccc7)NC(=O)CNC(=O)C(CO)NC(=O)C(C(O)C7CNC(=N)N7C7OC(CO)C(O)C(O)C7O)NC(=O)C(C(O)C7CNC(=N)N7)NC6=O)cc5)C(O)C4O)C(O)C(O)C3O2)cc1 (centres unmarked) [Example 183]
Enterococcus sp.; inoculum 5×10^5 CFU/mL
  MIC Enterococcus faecalis (ATCC 29212): 8 µg/mL (≈ 5.21 µM)
  MIC Enterococcus faecalis (GC 2242): 8 µg/mL (≈ 5.21 µM)
  MIC Enterococcus faecium (GC 2243): 2 µg/mL (≈ 1.3 µM)
  MIC Enterococcus faecalis (GC 2691): 2 µg/mL (≈ 1.3 µM)
  MIC Enterococcus faecalis (GC 3059): 4 µg/mL (≈ 2.6 µM)
  MIC Enterococcus faecalis (GC 4552): 8 µg/mL (≈ 5.21 µM)
  MIC Enterococcus faecalis (GC 4553): 4 µg/mL (≈ 2.6 µM)
  MIC Enterococcus faecalis (GC 4554): 4 µg/mL (≈ 2.6 µM)
  MIC Enterococcus faecium (GC 4556): 8 µg/mL (≈ 5.21 µM)
  MIC Enterococcus faecium (GC 4557): 4 µg/mL (≈ 2.6 µM)
  MIC Enterococcus avium (GC 4558): 2 µg/mL (≈ 1.3 µM)
  MIC Enterococcus faecalis (GC 6189): 2 µg/mL (≈ 1.3 µM)
Enterococcus sp.
  MIC Enterococcus faecalis (ATCC 29212): 8 µg/mL (≈ 5.21 µM)
  MIC Enterococcus faecalis (GC 2242): 8 µg/mL (≈ 5.21 µM)
  MIC Enterococcus faecium (GC 2243): 2 µg/mL (≈ 1.3 µM)
  MIC Enterococcus faecalis (GC 2691): 2 µg/mL (≈ 1.3 µM)
  MIC Enterococcus faecalis (GC 3059): 4 µg/mL (≈ 2.6 µM)
  MIC Enterococcus faecalis (GC 4552): 8 µg/mL (≈ 5.21 µM)
  MIC Enterococcus faecalis (GC 4553): 4 µg/mL (≈ 2.6 µM)
  MIC Enterococcus faecalis (GC 4554): 4 µg/mL (≈ 2.6 µM)
  MIC Enterococcus faecium (GC 4556): 8 µg/mL (≈ 5.21 µM)
  MIC Enterococcus faecium (GC 4557): 4 µg/mL (≈ 2.6 µM)
  MIC Enterococcus avium (GC 4558): 2 µg/mL (≈ 1.3 µM)
  MIC Enterococcus faecalis (GC 6189): 2 µg/mL (≈ 1.3 µM)
Escherichia coli; strain ATCC 25922, 18 hours at 35° C.
  MIC Escherichia coli (ATCC 25922): >64 µg/mL
Escherichia coli; strain GC 4559, 18 hours at 35° C.
  MIC Escherichia coli (GC 4559): >64 µg/mL
Escherichia coli; strain GC 4560, 18 hours at 35° C.
  MIC Escherichia coli (GC 4560): 4 µg/mL (≈ 2.6 µM)
Staphylococcus sp.; inoculum 5×10^5 CFU/mL
  MIC Staphylococcus aureus (GC 1131): 8 µg/mL (≈ 5.21 µM)
Staphylococcus sp.; strain ATCC 29213
  MIC Staphylococcus aureus (ATCC 29213): 4 µg/mL (≈ 2.6 µM)
Staphylococcus sp.
  MIC Staphylococcus aureus (GC 1131): 8 µg/mL (≈ 5.21 µM)
Staphylococcus sp.; strain GC 3051
  MIC Staphylococcus aureus (GC 3051): 2 µg/mL (≈ 1.3 µM)
Staphylococcus sp.; strain GC 3053
  MIC Staphylococcus aureus (GC 3053): 2 µg/mL (≈ 1.3 µM)
Staphylococcus sp.; strain GC 4541
  MIC Staphylococcus aureus (GC 4541): 8 µg/mL (≈ 5.21 µM)
Staphylococcus sp.; strain GC 4542
  MIC Staphylococcus aureus (GC 4542): 4 µg/mL (≈ 2.6 µM)
Staphylococcus sp.; strain GC 4544
  MIC Staphylococcus aureus (GC 4544): 4 µg/mL (≈ 2.6 µM)
Staphylococcus sp.; strain GC 4545
  MIC Staphylococcus aureus (GC 4545): 4 µg/mL (≈ 2.6 µM)
Staphylococcus sp.; strain GC 4543
  MIC Staphylococcus aureus-SMITH (GC 4543): 4 µg/mL (≈ 2.6 µM)
Staphylococcus sp.; strain GC 4546
  MIC Staphylococcus haemolyticus (GC 4546): 8 µg/mL (≈ 5.21 µM)
Staphylococcus sp.; strain GC 4547
  MIC Coagulase Negative Staphylococcus (GC 4547): 4 µg/mL (≈ 2.6 µM)
Staphylococcus sp.; strain GC 4548
  MIC Coagulase Negative Staphylococcus (GC 4548): 2 µg/mL (≈ 1.3 µM)
Staphylococcus sp.; strain GC 4549
  MIC Coagulase Negative Staphylococcus (GC 4549): 4 µg/mL (≈ 2.6 µM)
Staphylococcus sp.; strain GC 4551
  MIC Coagulase Negative Staphylococcus (GC 4551): 4 µg/mL (≈ 2.6 µM)
Staphylococcus sp.; strain GC 6257
  MIC Coagulase Negative Staphylococcus (GC 6257): 2 µg/mL (≈ 1.3 µM)
Streptococcus sp.; inoculum 5×10^5 CFU/mL
  MIC Streptococcus pneumoniae (ATCC 6301): <0.06 µg/mL
  MIC Streptococcus pneumoniae (GC 1894): <0.06 µg/mL
  MIC Streptococcus pyogenes (GC 4563): <0.06 µg/mL
  MIC Streptococcus agalactiae (GC 4564): <0.06 µg/mL
  MIC Streptococcus pneumoniae (GC 4565): <0.06 µg/mL
Streptococcus sp.
  MIC Streptococcus pneumoniae (ATCC 6301): <0.06 µg/mL
  MIC Streptococcus pneumoniae (GC 1894): <0.06 µg/mL
  MIC Streptococcus pyogenes (GC 4563): <0.06 µg/mL
  MIC Streptococcus agalactiae (GC 4564): <0.06 µg/mL
  MIC Streptococcus pneumoniae (GC 4565): <0.06 µg/mL

From patent US6914045B2, “Glycopeptide antibiotics” (Wyeth Holdings Corporation, priority 2001, dated 2005)
